This note sets out measurements from publication PMC7418496, “In Kluyveromyces lactis a Pair of Paralogous Isozymes Catalyze the First Committed Step of Leucine Biosynthesis in Either the Mitochondria or the Cytosol” (Frontiers in Microbiology, 2020).

The target of series [1] is T1, KlLeu4BIS (Kluyveromyces lactis, UniProt Q6CQU3).
T1 construct: gene KLLA0_D14201g; expressed in E. coli Rosetta 2 (DE3), Ni-NTA purified (tag not described); homodimer
T1 sequence (Q6CQU3 1-583): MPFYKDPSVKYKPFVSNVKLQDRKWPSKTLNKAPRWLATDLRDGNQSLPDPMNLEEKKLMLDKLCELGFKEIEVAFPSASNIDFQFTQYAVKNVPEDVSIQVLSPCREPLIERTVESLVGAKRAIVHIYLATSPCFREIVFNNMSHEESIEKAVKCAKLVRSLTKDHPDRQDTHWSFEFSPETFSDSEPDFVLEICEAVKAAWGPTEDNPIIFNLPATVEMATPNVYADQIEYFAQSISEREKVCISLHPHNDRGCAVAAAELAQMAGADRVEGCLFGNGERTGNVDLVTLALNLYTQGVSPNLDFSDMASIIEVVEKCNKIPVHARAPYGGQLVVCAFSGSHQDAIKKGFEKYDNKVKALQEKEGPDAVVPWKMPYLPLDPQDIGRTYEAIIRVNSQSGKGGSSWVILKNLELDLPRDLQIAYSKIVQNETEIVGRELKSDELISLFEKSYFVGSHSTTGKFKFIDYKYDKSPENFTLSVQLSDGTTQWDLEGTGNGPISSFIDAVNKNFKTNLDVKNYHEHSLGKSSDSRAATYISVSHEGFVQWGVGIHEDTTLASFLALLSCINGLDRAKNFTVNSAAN
Briefly: initial velocity kinetics from kinetic global fit, ordered bi-bi. Conditions: kinetic dissociation constant; varied with α-KIV 0.01–0.25 mM; 50 mM phosphate pH 7.5, 140 mM KCl, 4 mM MgCl2, 30 °C, DTNB; read-out: Kia /. It is filed as biochemical. From the text:
initial velocity kinetics from kinetic global fit, ordered bi-bi on KlLeu4BIS

Series [2] concerns the target T2, KlLeu4 (Kluyveromyces lactis, UniProt Q6CIW1).
T2 construct: gene KLLA0_F23529g; expressed in E. coli BL21(DE3), Ni-NTA purified (tag not described); homodimer
T2 sequence (Q6CIW1 1-609): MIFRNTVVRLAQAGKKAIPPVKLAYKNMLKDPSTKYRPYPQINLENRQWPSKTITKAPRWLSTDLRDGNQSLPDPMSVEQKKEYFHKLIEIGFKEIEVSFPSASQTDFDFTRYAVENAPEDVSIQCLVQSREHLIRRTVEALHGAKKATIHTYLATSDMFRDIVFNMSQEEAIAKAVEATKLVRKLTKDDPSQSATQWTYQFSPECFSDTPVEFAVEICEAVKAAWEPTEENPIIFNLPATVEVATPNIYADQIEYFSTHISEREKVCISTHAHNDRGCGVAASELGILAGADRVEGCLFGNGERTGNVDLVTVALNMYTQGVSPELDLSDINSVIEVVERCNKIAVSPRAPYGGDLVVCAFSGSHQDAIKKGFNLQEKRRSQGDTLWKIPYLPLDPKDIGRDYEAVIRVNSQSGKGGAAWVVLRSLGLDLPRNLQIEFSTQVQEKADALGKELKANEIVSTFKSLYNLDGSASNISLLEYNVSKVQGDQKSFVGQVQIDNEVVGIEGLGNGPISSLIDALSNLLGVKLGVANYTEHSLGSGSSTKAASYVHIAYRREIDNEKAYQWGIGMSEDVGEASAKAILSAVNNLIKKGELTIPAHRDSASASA
Described as above. To be noted: kinetic dissociation constant; varied with α-KIV 0.002–0.08 mM; 50 mM phosphate pH 7.5, 140 mM KCl, 4 mM MgCl2, 30 °C, DTNB; read-out: Kia /. The class given is biochemical. An excerpt: initial velocity kinetics from kinetic global fit, ordered bi-bi on KlLeu4

For series [3], the target named is T2, KlLeu4. Briefly: initial velocity inhibition kinetics, global fit. It is filed as biochemical. To be noted: read-out: Kis /. From the text: initial velocity inhibition kinetics, global fit on KlLeu4
For series [4], the target named is T3, KlLeu4 (Kluyveromyces lactis, UniProt Q6CIW1).
T3 construct: gene KLLA0_F23529g; native untagged enzyme in whole cell extract of the Klleu4bisΔ single mutant; homodimer
The series can be described thus: α-IPMS activity in whole cell extract, DTNB assay […] nm. The class given is biochemical. Conditions: 0.25 mM acetyl-CoA, 10 mM α-KIV, 50 mM phosphate pH 7.5, 140 mM KCl, 4 mM MgCl2, 30 °C.

Series [5] addresses T4, KlLeu4BIS (Kluyveromyces lactis, UniProt Q6CQU3).
T4 construct: gene KLLA0_D14201g; native untagged enzyme in whole cell extract of the Klleu4Δ single mutant; homodimer
Described as above. It is filed as biochemical. To be noted: 0.25 mM acetyl-CoA, 10 mM α-KIV, 50 mM phosphate pH 7.5, 140 mM KCl, 4 mM MgCl2, 30 °C.

Series [6] has as its target T1, KlLeu4BIS. The series can be described thus: initial velocity inhibition kinetics, global fit. To be noted: read-out: Kis /. It is filed as biochemical. From the text: initial velocity inhibition kinetics, global fit on KlLeu4BIS
Substrate in series [7]: CC(=O)SCCNC(=O)CCNC(=O)[C@H](O)C(C)(C)COP(=O)(O)OP(=O)(O)OC[C@H]1O[C@@H](n2cnc3c(N)ncnc32)[C@H](O)[C@@H]1OP(=O)(O)O
The series can be described thus: initial velocity kinetics, global fit, ordered bi-bi. Conditions: α-KIV co-varied 0.002–0.08 mM, 50 mM phosphate pH 7.5, 140 mM KCl, 4 mM MgCl2, 30 °C, DTNB. The class given is biochemical, Kluyveromyces lactis. From the text: (§1) initial velocity kinetics, global fit, ordered bi-bi on KlLeu4

Substrate in series [8]: CC(C)C(=O)C(=O)O
Described as above. The class given is biochemical, Kluyveromyces lactis. Conditions: acetyl-CoA co-varied 0.002–0.1 mM, 50 mM phosphate pH 7.5, 140 mM KCl, 4 mM MgCl2, 30 °C, DTNB.
Text: as §1

Substrate in series [9]: CC(=O)SCCNC(=O)CCNC(=O)[C@H](O)C(C)(C)COP(=O)(O)OP(=O)(O)OC[C@H]1O[C@@H](n2cnc3c(N)ncnc32)[C@H](O)[C@@H]1OP(=O)(O)O
The description is as above. The class given is biochemical, Kluyveromyces lactis. To be noted: α-KIV co-varied 0.01–0.25 mM, 50 mM phosphate pH 7.5, 140 mM KCl, 4 mM MgCl2, 30 °C, DTNB. From the text: (§2) initial velocity kinetics, global fit, ordered bi-bi on KlLeu4BIS

Substrate in series [10]: CC(C)C(=O)C(=O)O
The series is described as above. The class given is biochemical, Kluyveromyces lactis. Conditions: acetyl-CoA co-varied 0.008–0.1 mM, 50 mM phosphate pH 7.5, 140 mM KCl, 4 mM MgCl2, 30 °C, DTNB.
Text: as §2

For the molecule `CC(=O)SCCNC(=O)CCNC(=O)[C@H](O)C(C)(C)COP(=O)(O)OP(=O)(O)OC[C@H]1O[C@@H](n2cnc3c(N)ncnc32)[C@H](O)[C@@H]1OP(=O)(O)O` [acetyl coenzyme A], the Kd in series [1] was found to be 12 ± 7 µM; in [2], 17 ± 5 µM.

Regarding `CC(C)C[C@H](N)C(=O)O` [leucine], the Ki in series [3] was 34 ± 11 µM; in series [6], 31 ± 8 µM. For the same molecule, the concentration for half-maximal inhibition (IC50) was 20 µM in [4] and 37 µM in series [5].

B1: KlLeu4 (Kluyveromyces lactis NRRL Y-1140) (protein)
chain: MIFRNTVVRLAQAGKKAIPPVKLAYKNMLKDPSTKYRPYPQINLENRQWPSKTITKAPRWLSTDLRDGNQSLPDPMSVEQKKEYFHKLIEIGFKEIEVSFPSASQTDFDFTRYAVENAPEDVSIQCLVQSREHLIRRTVEALHGAKKATIHTYLATSDMFRDIVFNMSQEEAIAKAVEATKLVRKLTKDDPSQSATQWTYQFSPECFSDTPVEFAVEICEAVKAAWEPTEENPIIFNLPATVEVATPNIYADQIEYFSTHISEREKVCISTHAHNDRGCGVAASELGILAGADRVEGCLFGNGERTGNVDLVTVALNMYTQGVSPELDLSDINSVIEVVERCNKIAVSPRAPYGGDLVVCAFSGSHQDAIKKGFNLQEKRRSQGDTLWKIPYLPLDPKDIGRDYEAVIRVNSQSGKGGAAWVVLRSLGLDLPRNLQIEFSTQVQEKADALGKELKANEIVSTFKSLYNLDGSASNISLLEYNVSKVQGDQKSFVGQVQIDNEVVGIEGLGNGPISSLIDALSNLLGVKLGVANYTEHSLGSGSSTKAASYVHIAYRREIDNEKAYQWGIGMSEDVGEASAKAILSAVNNLIKKGELTIPAHRDSASASA
notes: expressed in E. coli BL21(DE3), Ni-NTA purified (tag not described); homodimer
With B1, the Km in [7] came to 26 ± 3 µM; in [8], 25 ± 3 µM.

B2: KlLeu4BIS (Kluyveromyces lactis NRRL Y-1140) (protein)
chain: MPFYKDPSVKYKPFVSNVKLQDRKWPSKTLNKAPRWLATDLRDGNQSLPDPMNLEEKKLMLDKLCELGFKEIEVAFPSASNIDFQFTQYAVKNVPEDVSIQVLSPCREPLIERTVESLVGAKRAIVHIYLATSPCFREIVFNNMSHEESIEKAVKCAKLVRSLTKDHPDRQDTHWSFEFSPETFSDSEPDFVLEICEAVKAAWGPTEDNPIIFNLPATVEMATPNVYADQIEYFAQSISEREKVCISLHPHNDRGCAVAAAELAQMAGADRVEGCLFGNGERTGNVDLVTLALNLYTQGVSPNLDFSDMASIIEVVEKCNKIPVHARAPYGGQLVVCAFSGSHQDAIKKGFEKYDNKVKALQEKEGPDAVVPWKMPYLPLDPQDIGRTYEAIIRVNSQSGKGGSSWVILKNLELDLPRDLQIAYSKIVQNETEIVGRELKSDELISLFEKSYFVGSHSTTGKFKFIDYKYDKSPENFTLSVQLSDGTTQWDLEGTGNGPISSFIDAVNKNFKTNLDVKNYHEHSLGKSSDSRAATYISVSHEGFVQWGVGIHEDTTLASFLALLSCINGLDRAKNFTVNSAAN
notes: expressed in E. coli Rosetta 2 (DE3), Ni-NTA purified (tag not described); homodimer
Regarding B2, the Km in series [9] was found to be 19 ± 5 µM; in series [10] it was 55 ± 13 µM.

What is called IC50 is the midpoint of a concentration-inhibition curve. The low end stands for greater potency in that assay, the high end for weaker potency in that assay. By Km is commonly meant the substrate concentration at which the rate is half of its maximum.
